Assay results published in US8785457B2 (Cellzome Limited, priority 2009, dated 2014).

Legend:
[1] = tested on: S6RP serine-240/244 phosphorylation; assay: In vitro Phospho-S6 cellular assay (pS6RP S240/244) in HEK293T/17 cells; type: cell-based; details: Homo sapiens, 2 hours, read-out: pS6 IC50
How it was run: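 Compounds were tested at eight concentrations on adhered HEK293T/17 cells for 2 h at 37 °C (2% FCS, 0.1% DMSO), at 80,000 cells/well for pAkt S473 and 40,000 for pS6RP S240/244. Lysates were captured on phospho-specific antibody MSD plates with Sulfo-Tag detection. Values came from nonlinear variable-slope regression.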

PI3 Kbeta (PI3 Kb) = biological target: T1, PI3 Kbeta (PI3 Kb) (Homo sapiens, UniProt P42338); assay: kinobeads assay, PI3Kbeta; type: binding; details: kinobeads assay, Table 6; read-out: Inhibition values (IC50) PI3Kb
T1 construct: endogenous in cells; host or cells: cell lysate
T1 sequence (P42338 whole entry): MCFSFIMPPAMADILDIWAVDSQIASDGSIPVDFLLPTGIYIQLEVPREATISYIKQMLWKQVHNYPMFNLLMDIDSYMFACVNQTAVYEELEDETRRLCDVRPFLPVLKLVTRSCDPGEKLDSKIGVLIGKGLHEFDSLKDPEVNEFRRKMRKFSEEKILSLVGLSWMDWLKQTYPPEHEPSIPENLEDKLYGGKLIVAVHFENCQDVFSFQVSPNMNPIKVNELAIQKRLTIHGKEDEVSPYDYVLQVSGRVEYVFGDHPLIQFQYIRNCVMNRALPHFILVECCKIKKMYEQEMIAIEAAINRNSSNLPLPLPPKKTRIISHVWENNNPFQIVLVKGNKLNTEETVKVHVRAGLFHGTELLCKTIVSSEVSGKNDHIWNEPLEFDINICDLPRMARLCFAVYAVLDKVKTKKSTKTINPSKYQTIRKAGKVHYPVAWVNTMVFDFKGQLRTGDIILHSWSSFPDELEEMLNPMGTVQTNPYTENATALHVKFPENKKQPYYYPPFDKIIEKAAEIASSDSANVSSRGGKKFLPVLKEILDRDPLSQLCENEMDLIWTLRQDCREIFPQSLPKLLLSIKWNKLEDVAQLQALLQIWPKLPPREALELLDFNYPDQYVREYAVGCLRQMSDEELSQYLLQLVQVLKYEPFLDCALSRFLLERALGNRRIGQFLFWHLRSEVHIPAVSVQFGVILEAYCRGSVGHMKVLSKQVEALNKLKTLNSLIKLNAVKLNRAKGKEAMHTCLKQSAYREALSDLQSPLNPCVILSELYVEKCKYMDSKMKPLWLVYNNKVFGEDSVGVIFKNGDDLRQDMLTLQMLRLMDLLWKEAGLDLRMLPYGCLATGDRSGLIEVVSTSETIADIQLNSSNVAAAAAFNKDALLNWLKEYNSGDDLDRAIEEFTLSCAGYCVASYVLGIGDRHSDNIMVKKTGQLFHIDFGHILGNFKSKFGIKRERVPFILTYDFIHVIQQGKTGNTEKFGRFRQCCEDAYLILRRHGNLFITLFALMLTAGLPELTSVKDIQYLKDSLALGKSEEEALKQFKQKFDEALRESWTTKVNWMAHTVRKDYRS
T1 sequence (P27986 whole entry partner): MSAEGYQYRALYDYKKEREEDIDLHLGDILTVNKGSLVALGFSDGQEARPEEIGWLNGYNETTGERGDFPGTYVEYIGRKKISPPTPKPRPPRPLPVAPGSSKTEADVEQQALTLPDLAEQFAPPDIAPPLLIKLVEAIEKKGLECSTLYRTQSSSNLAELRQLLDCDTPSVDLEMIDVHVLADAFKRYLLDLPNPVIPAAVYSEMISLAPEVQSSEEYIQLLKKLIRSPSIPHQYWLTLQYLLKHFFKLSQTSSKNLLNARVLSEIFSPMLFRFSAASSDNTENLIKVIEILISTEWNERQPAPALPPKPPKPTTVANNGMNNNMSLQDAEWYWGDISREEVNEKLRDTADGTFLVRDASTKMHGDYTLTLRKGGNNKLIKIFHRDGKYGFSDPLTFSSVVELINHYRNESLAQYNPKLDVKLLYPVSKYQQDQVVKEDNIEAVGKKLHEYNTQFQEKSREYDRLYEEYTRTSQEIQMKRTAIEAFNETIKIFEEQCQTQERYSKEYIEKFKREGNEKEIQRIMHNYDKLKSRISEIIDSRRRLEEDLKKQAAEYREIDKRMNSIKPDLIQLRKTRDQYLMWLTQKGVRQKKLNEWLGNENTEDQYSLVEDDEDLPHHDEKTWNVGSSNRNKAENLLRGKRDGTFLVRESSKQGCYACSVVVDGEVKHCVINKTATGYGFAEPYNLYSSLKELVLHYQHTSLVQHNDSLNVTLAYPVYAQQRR
How it was run: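 Competitive pull-down in cell lysate: compound (various conc.) + phenylmorpholin-chromen affinity beads, incubate, separate beads, elute. Multiplexed immunodetection of bound kinases; dose-response fit → IC50.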

Compound | IC50 [1] | IC50 (PI3 Kbeta (PI3 Kb))
CCNC(=O)Nc1ccc(-c2nc3c(c(N4CCOC[C@@H]4C)n2)CCN(CC(C)C)C3)cc1.O=CO [Example 76, (S)-1-ethyl-3-(4-(7-isobutyl-4-(3-methylmorpholino)-5,6,7,8-tetrahydropyrido[3,4-d]pyrimidin-2-yl)phenyl)urea formate] | 95 nM | > 10000 nM
CCOC(=O)N1Cc2nc(-c3ccc(NC(=O)Nc4ccncc4)cc3)nc(N3CCOC[C@@H]3C)c2C1 [Example 121, (S)-ethyl 4-(3-methylmorpholino)-2-(4-(3-(pyridin-4-yl)ureido)phenyl)-5H-pyrrolo[3,4-d]pyrimidine-6(7H)-carboxylate] | 33 nM | > 10000 nM
CCNC(=O)Nc1ccc(-c2nc3c(c(N4CCOC[C@@H]4C)n2)CN(CC(C)(C)C)C3)cc1 [Example 67, (S)-1-ethyl-3-(4-(4-(3-methylmorpholino)-6-neopentyl-6,7-dihydro-5H-pyrrolo[3,4-d]pyrimidin-2-yl)phenyl)urea] | 143 nM | > 10000 nM
CCNC(=O)Nc1ccc(-c2nc3c(c(N4CCOCC4)n2)CN(C(=O)OCC)C3)cc1 [Example 70, Ethyl 2-(4-(3-ethylureido)phenyl)-4-morpholino-5H-pyrrolo[3,4-d]pyrimidine-6(7H)-carboxylate] | 133 nM | > 10000 nM
CCNC(=O)Nc1ccc(-c2nc3c(c(N4CCOCC4)n2)CN(C(=O)C(C)(C)C)C3)cc1 [Example 100, 1-ethyl-3-(4-(4-morpholino-6-pivaloyl-6,7-dihydro-5H-pyrrolo[3,4-d]pyrimidin-2-yl)phenyl)urea] | 202 nM | > 10000 nM
CCOC(=O)N1Cc2nc(-c3ccc(NC(=O)NC4CC4)cc3F)nc(N3CCOC[C@@H]3C)c2C1 [Example 131, (S)-ethyl 2-(4-(3-cyclopropylureido)-2-fluorophenyl)-4-(3-methylmorpholino)-5H-pyrrolo[3,4-d]pyrimidine-6(7H)-carboxylate] | 99 nM | > 10000 nM
C[C@H]1COCCN1c1nc(-c2ccc(NC(=O)Nc3cccc(O)n3)cc2)nc2c1CN(C)C2 [Example 80, (S)-1-(6-hydroxypyridin-2-yl)-3-(4-(6-methyl-4-(3-methylmorpholino)-6,7-dihydro-5H-pyrrolo[3,4-d]pyrimidin-2-yl)phenyl)urea] | 89 nM | 1000 to 10000 nM
CCNC(=O)Nc1ccc(-c2nc3c(c(N4CCOC[C@@H]4C)n2)CCN(C(=O)NCC)C3)cc1 [Example 87, (S)—N-ethyl-2-(4-(3-ethylureido)phenyl)-4-(3-methylmorpholino)-5,6-dihydropyrido[3,4-d]pyrimidine-7(8H)-carboxamide] | 108 nM | > 10000 nM
CCNC(=O)Nc1ccc(-c2nc3c(c(N4CCOCC4)n2)CCN(C(=O)OCC)C3)cc1 [Example 96, ethyl 2-(4-(3-ethylureido)phenyl)-4-morpholino-5,6-dihydropyrido[3,4-d]pyrimidine-7(8H)-carboxylate] | 50 nM | > 10000 nM
CCNC(=O)Nc1ccc(-c2nc3c(c(N4CCOC[C@@H]4C)n2)CN(C(=O)OC)C3)cc1 [Example 89, (S)-methyl 2-(4-(3-ethylureido)phenyl)-4-(3-methylmorpholino)-5H-pyrrolo[3,4-d]pyrimidine-6(7H)-carboxylate] | 82 nM | > 10000 nM
CCOC(=O)N1Cc2nc(-c3ccc(NC(=O)NCCF)cc3)nc(N3CCOC[C@@H]3C)c2C1 [Example 120, (S)-ethyl 2-(4-(3-(2-fluoroethyl)ureido)phenyl)-4-(3-methylmorpholino)-5H-pyrrolo[3,4-d]pyrimidine-6(7H)-carboxylate] | 25 nM | > 10000 nM
CCNC(=O)Nc1ccc(-c2nc3c(c(N4CCOC[C@@H]4C)n2)CN(C)C3)cc1F [Example 85, (S)-1-ethyl-3-(2-fluoro-4-(6-methyl-4-(3-methylmorpholino)-6,7-dihydro-5H-pyrrolo[3,4-d]pyrimidin-2-yl)phenyl)urea] | 873 nM | > 10000 nM
COC(=O)N1CCc2c(nc(-c3ccc(NC(=O)NC4CC4)cc3)nc2N2CCOC[C@@H]2C)C1 [Example 83, (S)-methyl 2-(4-(3-cyclopropylureido)phenyl)-4-(3-methylmorpholino)-5,6-dihydropyrido[3,4-d]pyrimidine-7(8H)-carboxylate] | 140 nM | > 10000 nM
CCNC(=O)Nc1cc(F)c(-c2nc3c(c(N4CCOC[C@@H]4C)n2)CCN(C)C3)cc1F [Example 108, (S)-1-(2,5-difluoro-4-(7-methyl-4-(3-methylmorpholino)-5,6,7,8-tetrahydropyrido[3,4-d]pyrimidin-2-yl)phenyl)-3-ethylurea] | 935 nM | > 10000 nM
CCNC(=O)Nc1ccc(-c2nc3c(c(N4CCOCC4)n2)CCN(C(=O)C(C)(C)C)C3)cc1 [Example 98, 1-ethyl-3-(4-(4-morpholino-7-pivaloyl-5,6,7,8-tetrahydropyrido[3,4-d]pyrimidin-2-yl)phenyl)urea] | 45 nM | > 10000 nM
C[C@H]1COCCN1c1nc(-c2ccc(NC(=O)NCCO)cc2)nc2c1CN(C)C2 [Example 73, (S)-1-(2-hydroxyethyl)-3-(4-(6-methyl-4-(3-methylmorpholino)-6,7-dihydro-5H-pyrrolo[3,4-d]pyrimidin-2-yl)phenyl)urea] | 425 nM | 1000 to 10000 nM
CC(C)CN1Cc2nc(-c3ccc(NC(=O)NC4CC4)cc3)nc(N3CCOC[C@@H]3C)c2C1 [Example 65, (S)-1-cyclopropyl-3-(4-(6-isobutyl-4-(3-methylmorpholino)-6,7-dihydro-5H-pyrrolo[3,4-d]pyrimidin-2-yl)phenyl)urea] | 149 nM | > 10000 nM
CCNC(=O)Nc1ncc(-c2nc3c(c(N4CCOC[C@@H]4C)n2)CCN(C)C3)s1 [Example 106, (S)-1-ethyl-3-(5-(7-methyl-4-(3-methylmorpholino)-5,6,7,8-tetrahydropyrido[3,4-d]pyrimidin-2-yl)thiazol-2-yl)urea] | 294 nM | > 10000 nM
CCOC(=O)N1Cc2nc(-c3ccc(NC(=O)NC4CC4)c(F)c3)nc(N3CCOC[C@@H]3C)c2C1 [Example 105, (S)-ethyl 2-(4-(3-cyclopropylureido)-3-fluorophenyl)-4-(3-methylmorpholino)-5H-pyrrolo[3,4-d]pyrimidine-6(7H)-carboxylate] | 414 nM | > 10000 nM
CCNC(=O)Nc1ccc(-c2nc3c(c(N4CCOC[C@@H]4C)n2)CCN(C(=O)OCC)C3)cc1 [Example 77, (S)-ethyl 2-(4-(3-ethylureido)phenyl)-4-(3-methylmorpholino)-5,6-dihydropyrido[3,4-d]pyrimidine-7(8H)-carboxylate] | 38 nM | > 10000 nM
CCNC(=O)Nc1ccc(-c2nc3c(c(N4CCOC[C@@H]4C)n2)CCN(C)C3)c(F)c1 [Example 110, (S)-1-ethyl-3-(3-fluoro-4-(7-methyl-4-(3-methylmorpholino)-5,6,7,8-tetrahydropyrido[3,4-d]pyrimidin-2-yl)phenyl)urea] | 192 nM | > 10000 nM
C[C@H]1COCCN1c1nc(-c2ccc(NC(=O)NC3CC3)cc2)nc2c1CCN(C(=O)C(C)(C)C)C2 [Example 64, (S)-1-cyclopropyl-3-(4-(4-(3-methylmorpholino)-7-pivaloyl-5,6,7,8-tetrahydropyrido[3,4-d]pyrimidin-2-yl)phenyl)urea] | 30 nM | > 10000 nM
CCNC(=O)Nc1ccc(-c2nc3c(c(N4CCOCC4)n2)CN(C)C3)cc1 [Example 69, 1-Ethyl-3-(4-(6-methyl-4-morpholino-6,7-dihydro-5H-pyrrolo[3,4-d]pyrimidin-2-yl)phenyl)urea] | 208 nM | 1000 to 10000 nM
